Earlier results as cited in US20090236541A1, “System and Methods for Optical Imaging” (General Electric Company, priority 2008, published 2009).

What was measured:
[1] = test system: mitochondria and/or the endoplasmic reticulum; conditions: concentration-dependent manner
[2] = test system: heart of a living laboratory rat; conditions: living laboratory rat after a thoracotomy
[3] = small molecule form

solubility in blood [3] | SMILES | partitioning into mitochondria and/or endoplasmic reticulum [1] | imaging of blood flow in the heart [2]
– | CN1C(=CC=C2CCCC(C=CC3=[N+](C)c4ccccc4C3(C)C)=C2Cl)C(C)(C)c2ccccc21.[O-][Cl+3]([O-])([O-])[O-] [IR-786] | partitions efficiently into mitochondria and/or the endoplasmic reticulum | successfully applied
somewhat less soluble in blood | CC1(C)C(/C=C/C=C/C=C/C=C2\N(CCCCS(=O)(=O)O)c3ccc4ccccc4c3C2(C)C)=[N+](CCCCS(=O)(=O)[O-])c2ccc3ccccc3c21 [Indocyanine green, indocyanine green] | – | –
